The results in this text go back to patent US7279161B2, “Factor IX/factor IXa activating antibodies and antibody derivatives” (Baxter Aktiengesellschaft, priority 1999, dated 2007).

Entries after “also recorded” stand apart in the source; their conditions may differ.

In one experiment the test system is FVIII deficient plasma. As to the kind of experiment: aPTT based one stage clotting assay in FVIII deficient plasma. It counts as biochemical, human. The note with it: for one-stage clotting time (printed in brackets after 'strong reduction' / 'strongly active'): 12.5 μM, 2.2 nM human FIXa. As for the experimental part: During normal hemostasis, FIX becomes initially activated either by the tissue factor (TF)/factor VIIa pathway or later on by activated factor XI (FXIa). Subsequent to its activation, FIXa associates on the platelet surface in a membrane bound complex with activated FVIII. […] Different amounts of antibody 193/AD3 or mouse IgG (as a control) were used in a standard aPTT based one stage clotting assay. Briefly, 100 μl of antibody-containing samples were incubated with 100 μl of FVIII deficient plasma (DP) and with 100 μl of DAPTTIN (PTT Reagent for determining activated Thromboplastin Time; IMMUNO AG) reagent, in a KC10A clotting analyzer. Where indicated, a total amount of 50 ng activated FIX was included in the reaction mixture. After a 4 minute incubation, the reaction was started by the addition of 100 μl CaCl2 (25 mM).
The peptides were also analyzed for their potential to reduce the clotting time in a FVIII deficient plasma. The aPTT based one stage clotting assay was essentially done as described (see example 6). Clotting times (time from starting the reaction to the “clot”-formation were compared either against FVIII, a buffer control (IZ) or a control peptide (scrambled version). The results of two typical clotting experiments done with two different aPTT reagents (DAPTTIN and Pathromtin SL) are shown in table 3A and table 3B.

The target in another experiment is T1, human FIXa (Homo sapiens, UniProt P00740).
T1 construct: with (+) and without (−) addition of 50 ng human FIXaβ; purchased ERL (Enzyme Research Laboratories)
In words: Chromogenic FVIII-like (FXa generation) assay with human FIXa added. It counts as biochemical. The note with it: for FIXa activating activity in chromogenic assay: data not shown. As for the experimental part: The chromogenic activity of these antibody preparations was measured in the following FXa generation kinetic assay: 10 μg of monoclonal antibody (in 25 μl) were transferred to microtiter plate wells and warmed to 37° C. Chromogenic substrate (S-2222), synthetic thrombin inhibitor (I-2581), factor IXa and FX were reconstituted in sterile water and FIXa/FX (both bovine) were mixed with phospholipids according to the supplier's protocol. Per reaction, 50 μl of the phospholipid/FIXa/FX solution were combined with 25 μl CaCl2 (25 mM) and 50 μl of the substrate/inhibitor cocktail. To start the reaction, 125 μl of the premix were added to the monoclonal antibody solution in the microtiter plates and incubated at 37° C. Absorbance at 405 nm and 490 nm of the samples was read at various times (5 min to 2 h) against a reagent blank ([…] TBS instead of monoclonal antibodies) in a Labsystems iEMS Reader MF™ microtiter plate reader using GENESIS™ software. In parallel, the same reactions were performed except that 50 ng human FIXa were added per reaction.
To analyze the FVIII-like (FIXa activating) activity of the peptides, an assay system based on a commercial available FVIII assay was developed (see examples 2 and 4). The basic principle is, that without a cofactor, FIXa will have very limited activity towards its natural substrate FX. […] The amount of FXa generated is monitored by cleavage of a chromogenic substrate. The principle of the revised chromogenic assay is described for two representative peptides: A1/3 and A1/5 (Table 2). Briefly, 25 μl aliquots of peptide stock solution (in imidazole buffer (IZ) 50 mM imidazole, 100 mM NaCl, pH 7.2) were transferred to microtiter plate wells and warmed to 37° C. Chromogenic FXa substrate (S-2222), synthetic thrombin inhibitor (I-2581), bovine FIXa and bovine FX were reconstituted in sterile water and FIXa/FX mixed with phospholipids according to the supplier's protocol. […] Per reaction, 50 μl of the phospholipid/FIXa/FX solution were combined with 25 μl CaCl2 (25 mM) and 50 μl of the substrate/inhibitor cocktail. To start the reaction, 125 μl of the premix were added to the peptide solution in the microtiter plate and incubated at 37° C. Absorbance at 405 nm and 490 nm of the samples was read at various times (5 min to 2 h) against a reagent blank in a Labsystems iEMS Reader MF™ microtiter plate reader using GENESIS™ software.

Setting [1] is: in the presence of 2.2 nM human FIXa.
Setting [2] is: 12.5 nM peptide, (+) presence of activated human FIX.
The mark [3] stands for this setting: 12.5 nM peptide, (−) absence of activated human FIX.
The mark [4] stands for this setting: 0.125 μM peptide, (+) presence of activated human FIX.
[5] abbreviates: 0.125 μM peptide, (−) absence of activated human FIX.
[6] abbreviates: 1.25 μM peptide, (+) presence of activated human FIX.
Where [7] appears, read: 1.25 μM peptide, (−) absence of activated human FIX.
The mark [8] stands for this setting: 12.5 μM peptide, (+) presence of activated human FIX.
Where [9] appears, read: 12.5 μM peptide, (−) absence of activated human FIX.

Consider RRREGAGYYVNWYFDRRR [A1/3-2], for which, in the experiment on FVIII deficient plasma, the “one-stage clotting time (printed in brackets after 'strong reduction' / 'strongly active')” value stood at 34 s. Moreover, in the experiment on FVIII deficient plasma (setting [1]), the one-stage clotting activity entry is on record as “strong reduction of the one-stage clotting time”. Also, on human FIXa (Alanine scan), the chromogenic activity result is “high chromogenic activity”.
As for RdRdRdEGGGYYVNWYFDRdRdRd [A1/3-Rd], the average clotting time was 96 s with FVIII deficient plasma (Table 4, 1.25 μM, 2.2 nM FIXa); 108 s with FVIII deficient plasma (Table 4, 1.25 μM, w/o FIXa); 95 s in the experiment on FVIII deficient plasma (Table 4, 2.5 μM, 2.2 nM FIXa); 103 s with FVIII deficient plasma (Table 4, 2.5 μM, w/o FIXa); 86 s in the experiment with FVIII deficient plasma (Table 4, 5 μM, 2.2 nM FIXa); 99 s in the experiment with FVIII deficient plasma (Table 4, 5 μM, w/o FIXa). Further, the average clotting time in the experiment on FVIII deficient plasma (Table 4, 7.5 μM, 2.2 nM FIXa) amounted to 82 s; with FVIII deficient plasma (Table 4, 7.5 μM, w/o FIXa), 98 s; in the experiment on FVIII deficient plasma (Table 4, 10 μM, 2.2 nM FIXa) it was 76 s; in the experiment on FVIII deficient plasma (Table 4, 10 μM, w/o FIXa) it was 95 s; in the experiment with FVIII deficient plasma (Table 4, 12.5 μM, 2.2 nM FIXa) it was 73 s; in the experiment with FVIII deficient plasma (Table 4, 12.5 μM, w/o FIXa), 98 s. For the same substance, the average clotting time in the experiment on FVIII deficient plasma (Table 4, 15 μM, 2.2 nM FIXa) is 75 s; in the experiment on FVIII deficient plasma (Table 4, 15 μM, w/o FIXa) it was 96 s. Further, the clotting time with FVIII deficient plasma (Table 4, 1.25 μM, 2.2 nM FIXa, duplicate 1) was 96.6 s; in the experiment with FVIII deficient plasma (Table 4, 1.25 μM, 2.2 nM FIXa, duplicate 2), 96 s; with FVIII deficient plasma (Table 4, 1.25 μM, w/o FIXa, duplicate 1) it was 107.5 s; with FVIII deficient plasma (Table 4, 1.25 μM, w/o FIXa, duplicate 2) it was 107.7 s; with FVIII deficient plasma (Table 4, 2.5 μM, 2.2 nM FIXa, duplicate 1) it was 94.4 s; with FVIII deficient plasma (Table 4, 2.5 μM, 2.2 nM FIXa, duplicate 2) it was 94.7 s. The clotting time in the experiment with FVIII deficient plasma (Table 4, 2.5 μM, w/o FIXa, duplicate 1) was determined as 102.7 s; in the experiment on FVIII deficient plasma (Table 4, 2.5 μM, w/o FIXa, duplicate 2), 103.4 s; with FVIII deficient plasma (Table 4, 5 μM, 2.2 nM FIXa, duplicate 1), 86 s; with FVIII deficient plasma (Table 4, 5 μM, 2.2 nM FIXa, duplicate 2) it was 85.1 s; in the experiment on FVIII deficient plasma (Table 4, 5 μM, w/o FIXa, duplicate 1), 99.2 s; in the experiment on FVIII deficient plasma (Table 4, 5 μM, w/o FIXa, duplicate 2), 99.1 s. The clotting time with FVIII deficient plasma (Table 4, 7.5 μM, 2.2 nM FIXa, duplicate 1) amounted to 80.9 s; with FVIII deficient plasma (Table 4, 7.5 μM, 2.2 nM FIXa, duplicate 2), 82.2 s; in the experiment on FVIII deficient plasma (Table 4, 7.5 μM, w/o FIXa, duplicate 1), 97.6 s; with FVIII deficient plasma (Table 4, 7.5 μM, w/o FIXa, duplicate 2) it was 98.1 s; in the experiment on FVIII deficient plasma (Table 4, 10 μM, 2.2 nM FIXa, duplicate 1), 74.2 s; with FVIII deficient plasma (Table 4, 10 μM, 2.2 nM FIXa, duplicate 2), 77.2 s. For the same substance, the clotting time with FVIII deficient plasma (Table 4, 10 μM, w/o FIXa, duplicate 1) worked out at 93.5 s; in the experiment with FVIII deficient plasma (Table 4, 10 μM, w/o FIXa, duplicate 2), 95.8 s; in the experiment with FVIII deficient plasma (Table 4, 12.5 μM, 2.2 nM FIXa, duplicate 1), 72.3 s; with FVIII deficient plasma (Table 4, 12.5 μM, 2.2 nM FIXa, duplicate 2), 73.7 s; with FVIII deficient plasma (Table 4, 12.5 μM, w/o FIXa, duplicate 1), 98 s; in the experiment with FVIII deficient plasma (Table 4, 12.5 μM, w/o FIXa, duplicate 2) it was 98.6 s. Further, the clotting time amounted to 76.1 s in the experiment with FVIII deficient plasma (Table 4, 15 μM, 2.2 nM FIXa, duplicate 1); 74.4 s with FVIII deficient plasma (Table 4, 15 μM, 2.2 nM FIXa, duplicate 2); 96.4 s with FVIII deficient plasma (Table 4, 15 μM, w/o FIXa, duplicate 1); 95.4 s in the experiment on FVIII deficient plasma (Table 4, 15 μM, w/o FIXa, duplicate 2). The “aPTT based one-stage clotting activity” value in the experiment on FVIII deficient plasma (compared with A1/3) is “somewhat reduced, was still easily detectable”. In addition, the chromogenic activity entry at human FIXa (12 μM peptide, 2.3 nM human FIXa) is “virtually unchanged”; at human FIXa (12 μM peptide, 2.3 nM human FIXa, listed as A1/3-rd), “did not change the FVIII-like activity”.
RRRFGVGYGETNFDWRRR [B1/7scr3]: the clotting time with FVIII deficient plasma (setting [2]) turned out to be 94 s; with FVIII deficient plasma (setting [3]), 105 s; in the experiment on FVIII deficient plasma (setting [4]), 94 s; with FVIII deficient plasma (setting [5]), 106 s; with FVIII deficient plasma (setting [6]) it was 94 s; in the experiment with FVIII deficient plasma (setting [7]), 105 s. Further, the clotting time was 102 s in the experiment with FVIII deficient plasma (setting [8]) and 115 s in the experiment on FVIII deficient plasma (setting [9]). Also, on human FIXa, the “FIXa activating activity in chromogenic assay” value is listed as “no activity”.
As to RRREGGEYYVNWYFDRRR [A1/3-24], the procoagulant activity result in the experiment with FVIII deficient plasma (absence of human FIXa) was “no procoagulant activity”. Further, the one-stage clotting activity result with FVIII deficient plasma (setting [1]) is “strongly active”. The “chromogenic FVIII-like activity at higher concentrations” value on human FIXa (up to 24 μM) was “lost activity”.
Take RRREGGAYYVNWYFDRRR [A1/3-3]: the “one-stage clotting time (printed in brackets after 'strong reduction' / 'strongly active')” value in the experiment on FVIII deficient plasma stood at 31 s. For the same substance, the one-stage clotting activity entry with FVIII deficient plasma (higher concentrations (12.5 μM), absence of FIXa) is reported as “somewhat inhibitory”; in the experiment on FVIII deficient plasma (setting [1]), “strongly active”. For the same substance, the “final concentration of optimum chromogenic activity” value on human FIXa is ~12 µM.
Consider RRREGGGFTVNWYFDRRR [B1/7], for which the clotting time came out at 99 s with FVIII deficient plasma (setting [2]); 110 s with FVIII deficient plasma (setting [3]); 99 s in the experiment with FVIII deficient plasma (setting [4]); 109 s in the experiment on FVIII deficient plasma (setting [5]); 92 s in the experiment on FVIII deficient plasma (setting [6]); 112 s in the experiment on FVIII deficient plasma (setting [7]). Also, the clotting time in the experiment with FVIII deficient plasma (setting [8]) was 83 s; in the experiment with FVIII deficient plasma (setting [9]), 157 s. For the same substance, the “FIXa activating activity (generation of FXa)” value on human FIXa (2.4 μM peptide, 2.3 nM human FIXa) was “well measurable generation of FXa; also recorded: measureable generation of Fxa”. Further, the “FXa generation without FIXa and FX” value on human FIXa (2.4 μM peptide, w/o FIXa/FX) was “no FXa was synthesized; also recorded: no reaction is detectable”.
With EEEEGGGFTVNWYFDEEE [B1/6], the clotting time in the experiment with FVIII deficient plasma (setting [2]) is 100 s; with FVIII deficient plasma (setting [3]), 111 s; in the experiment with FVIII deficient plasma (setting [4]), 101 s; in the experiment on FVIII deficient plasma (setting [5]) it was 111 s; with FVIII deficient plasma (setting [6]), 100 s; in the experiment with FVIII deficient plasma (setting [7]) it was 110 s. The clotting time with FVIII deficient plasma (setting [8]) is 103 s; with FVIII deficient plasma (setting [9]) it was 115 s. Also, the “FIXa activating activity in chromogenic assay” value on human FIXa was “no activity”.
